# Read-outs that look alike come from different tables or passages of the source.
# Columns and labels:
# S. haemolyticus (CoNS) = experiment: Broth microdilution MIC, S. haemolyticus (CoNS) (Table 7); type: cell-based; conditions: S. haemolyticus (CoNS) MMX 529 ATCC 29970
# P. micros = experiment: Broth microdilution MIC, P. micros (Table 7); type: cell-based; conditions: P. micros MMX 3546
# S. hominis (CoNS) = experiment: Broth microdilution MIC, S. hominis (CoNS) (Table 7); type: cell-based; conditions: S. hominis (CoNS) MMX 667 ATCC 27844
# S. lugdenensis (CoNS) = experiment: Broth microdilution MIC, S. lugdenensis (CoNS) (Table 7); type: cell-based; conditions: S. lugdenensis (CoNS) MMX 8724
# E. lenta = experiment: Broth microdilution MIC, E. lenta (Table 7); type: cell-based; conditions: E. lenta MMX 1287 ATCC 43055
# Streptococci = experiment: Broth microdilution MIC, Streptococci (Example 11, Table 7); type: cell-based
# C. perfringens = type: cell-based; conditions: C. perfringens MMX 8351 ATCC 13124
# [1] = Un-inoculated solubility control plates, drug precipitation in test media; type: physicochemical; conditions: top concentration tested (64 μg/mL) in MHBII with blood and supplemented Brucella broth
# Enterococci = type: cell-based
# Clostridium difficile = experiment: Broth microdilution MIC, C. difficile, anaerobic, supplemented Brucella Broth (Example 11, Table 7); type: cell-based
# Staphylococcus aureus = experiment: microbe, parasite or virus in culture; type: cell-based
# S. epidermidis (CoNS) = experiment: Broth microdilution MIC, S. epidermidis (CoNS) (Table 7); type: cell-based
# P. anaerobius = experiment: Broth microdilution MIC, P. anaerobius (Table 7); type: cell-based; conditions: P. anaerobius MMX 1208 ATCC 27337
# P. acnes = experiment: Broth microdilution MIC, P. acnes (Table 7); type: cell-based
smiles,measurement,setting,value
"CCCCCCCCCCNC1(C)CC(OC2C(Oc3c4cc5cc3Oc3ccc(cc3Cl)C(O)C3NC(=O)C(NC(=O)C5NC(=O)C(CC(N)=O)NC(=O)C(NC(=O)C(CC(C)C)NC)C(O)c5ccc(c(Cl)c5)O4)c4ccc(O)c(c4)-c4c(O)cc(O)cc4C(C(=O)O)NC3=O)OC(CO)C(O)C2O)OC(C)C1O (stereo not shown) [Compound 5, N-decyl vancomycin]",MIC,S. haemolyticus (CoNS),0.06 µg/mL
same,MIC,P. micros,0.12 µg/mL
same,MIC,S. hominis (CoNS),0.06 µg/mL
same,MIC,S. lugdenensis (CoNS),0.03 µg/mL
same,MIC,E. lenta,0.12 µg/mL
same,MIC,Streptococci; S. agalactiae MMX 427 ATCC 13813,0.03 µg/mL
same,MIC,Streptococci; S. agalactiae MMX 4088,0.015 µg/mL
same,MIC,"Streptococci; S. agalactiae MMX 4115, erm^R",0.015 µg/mL
same,MIC,Streptococci; S. anginosus (AGS) MMX 1201 ATCC 33397,0.03 µg/mL
same,MIC,Streptococci; S. constellatus (AGS) MMX 5677,0.03 µg/mL
same,MIC,Streptococci; S. dysgalactiae MMX 5121,0.015 µg/mL
same,MIC,Streptococci; S. dysgalactiae MMX 5123,0.03 µg/mL
same,MIC,Streptococci; S. dysgalactiae MMX 5124,0.015 µg/mL
same,MIC,Streptococci; S. mitis (MGS) MMX 1205 ATCC 49456,0.03 µg/mL
same,MIC,Streptococci; S. mitis (MGS) MMX 5798,0.015 µg/mL
same,MIC,Streptococci; S. oralis (MGS) MMX 5821,0.03 µg/mL
same,MIC,"Streptococci; S. pneumoniae MMX 1195 ATCC 49619, PISP",0.015 µg/mL
same,MIC,"Streptococci; S. pyogenes MMX 946, ermR",0.015 µg/mL
same,MIC,C. perfringens,0.06 µg/mL
same,drug precipitation,[1],Some precipitation
same,MIC,Enterococci,0.06 µg/mL
same,MIC,"Enterococci; E. faecalis MMX 1086, VanA VRE",0.06 µg/mL
same,MIC,"Enterococci; E. faecium MMX 173, VanB VRE",0.12 µg/mL
same,MIC,"Enterococci; E. faecium MMX 851, VanA VRE",2 µg/mL
same,MIC,"Clostridium difficile; C. difficile MMX 4381 ATCC 700057, toxinAB-negative",0.06 µg/mL
same,MIC,"Clostridium difficile; C. difficile MMX 4994 ATCC BAA-1805, ribotype 027",0.06 µg/mL
same,MIC,"Clostridium difficile; C. difficile MMX 5668 ATCC BAA-1870, NAP1/027",0.5 µg/mL
same,RV40 activity as compared to Comparator,"Staphylococcus aureus; MRSA strains (Table 5), […]",9 ×
same,MIC,"Staphylococcus aureus; S. aureus MMX 100 ATCC 29213, MSSA (quality control)",0.06 µg/mL
same,MIC,"Staphylococcus aureus; S. aureus MMX 1723, Mu50, VISA",0.5 µg/mL
same,MIC,"Staphylococcus aureus; S. aureus MMX 2010, MRSA",0.06 µg/mL
same,MIC,"Staphylococcus aureus; S. aureus MMX 2011 ATCC BAA-1756, MRSA",0.12 µg/mL
same,MIC,"Staphylococcus aureus; S. aureus MMX 2124, VISA, DaptoNS",0.25 µg/mL
same,MIC,"Staphylococcus aureus; S. aureus MMX 2490, MSSA",0.06 µg/mL
same,MIC,"Staphylococcus aureus; S. aureus MMX 3982, MRSA",0.06 µg/mL
same,MIC,"Staphylococcus aureus; S. aureus MMX 4658, VISA",0.5 µg/mL
same,MIC,"Staphylococcus aureus; S. aureus MMX 4660, VISA",0.12 µg/mL
same,MIC,"Staphylococcus aureus; S. aureus MMX 4665, hVISA",0.5 µg/mL
same,MIC,"Staphylococcus aureus; S. aureus MMX 4675 ATCC BAA-1556, MRSA",0.06 µg/mL
same,MIC,"Staphylococcus aureus; S. aureus MMX 5717 ATCC 33591, MRSA",0.06 µg/mL
same,MIC,"Staphylococcus aureus; S. aureus MMX 5985, MRSA",0.06 µg/mL
same,MIC,"Staphylococcus aureus; S. aureus MMX 5989, Mu3, hVISA",0.06 µg/mL
same,MIC,"Staphylococcus aureus; S. aureus MMX 5999, MRSA",0.06 µg/mL
same,MIC,"Staphylococcus aureus; S. aureus MMX 7899, MRSA",0.06 µg/mL
same,MIC,"Staphylococcus aureus; S. aureus MMX 7900, MRSA",0.12 µg/mL
same,MIC,"Staphylococcus aureus; S. aureus MMX 7901, MRSA",0.06 µg/mL
same,MIC,"Staphylococcus aureus; S. aureus MMX 7902, MRSA",0.25 µg/mL
same,MIC,"Staphylococcus aureus; S. aureus MMX 7903, MRSA",0.06 µg/mL
same,MIC,"Staphylococcus aureus; S. aureus MMX 7907, MSSA",0.06 µg/mL
same,MIC,"Staphylococcus aureus; S. aureus MMX 7908, MSSA",0.12 µg/mL
same,MIC,"S. epidermidis (CoNS); S. epidermidis (CoNS) MMX 762, MRSE",0.12 µg/mL
same,MIC,"S. epidermidis (CoNS); S. epidermidis (CoNS) MMX 5145, MRSE",0.06 µg/mL
same,MIC,P. anaerobius,0.03 µg/mL
same,MIC,P. acnes; P. acnes MMX 7942 ATCC 6919,0.06 µg/mL
same,MIC,P. acnes; P. acnes MMX 7946 ATCC 11827,0.06 µg/mL

# — US20200368312A1 (priority 2017, published 2020)
